Earlier results as cited in publication PMC13151045, “Accounting for Differences in Plasma Protein Binding between Fish and Humans for Supporting Environmental Risk Assessment of Pharmaceuticals Using the Fish Plasma Model” (Environmental Science & Technology, 2026).

Details: minimum reported human therapeutic plasma concentration; ref footnote e of Table 4

Row | SMILES | Human C max
1 | CC1Cc2ccccc2N1NC(=O)c1ccc(Cl)c(S(N)(=O)=O)c1 (centres unmarked) [Indapamide] | 55.8 ng/mL
2 | CC(C)NCC(O)COc1cccc2ccccc12 (centres unmarked) [Propranolol] | 20 ng/mL
